Read-outs that look alike come from different tables or passages of the source.
Assays:
[1] = test system: murine Lewis lung carcinoma cell line (LLC1); format: in vivo, Female C57BL mice; conditions: control group 12.11 days
[2] = test system: murine Lewis lung carcinoma cell line (LLC1); test: Taxol and MGd, tumor regrowth delay in subcutaneous Lewis lung carcinoma model; format: in vivo, Female C57BL mice; conditions: control group 11.40 days
murine Lewis lung cancer = test: Carboplatin and MGd, murine Lewis lung cancer in C57 mice; format: in vivo; conditions: Group #2: 20 μmol/kg MGd on day 7 post tumor inoculation; control group 12.14 days
[3] = test system: murine Lewis lung carcinoma cell line (LLC1); test: BCNU and MGd, tumor regrowth delay in subcutaneous Lewis lung carcinoma model; format: in vivo, Female C57BL mice; conditions: control group 11.45 days

bleomycin [reference compound]
median survival ([1]; Group #3: 10 units/kg bleomycin iv thrice at three day intervals after tumor established): 14.73 days

CC(=O)O[C@H]1C(=O)[C@@]2(C)[C@H]([C@H](OC(=O)c3ccccc3)[C@]3(O)C[C@H](OC(=O)[C@H](O)[C@@H](NC(=O)c4ccccc4)c4ccccc4)C(C)=C1C3(C)C)[C@]1(OC(C)=O)CO[C@@H]1C[C@@H]2O [Taxol, paclitaxel, reference compound]
median survival ([2]; Group #3: 24 μmol/kg of Taxol iv on days 7, 9, 11 and 13): 11.55 days

Motexafin Gadolinium [MGd]
median survival (murine Lewis lung cancer): 12.42 days | median survival ([3]; Group #2: 20 μmol/kg MGd iv on days 10, 12 and 14): 10.04 days | median survival ([2]; Group #2: 20 μmol/kg MGd iv on days 7, 9, 11 and 13): 12.90 days | median survival ([1]; Group #2: 20 μmol/kg MGd iv thrice at three day intervals after tumor established): 13.07 days

O=NN(CCCl)C(=O)NCCCl [BCNU, carmustine, reference compound]
median survival ([3]; Group #3: 15 mg/kg BCNU ip on days 10, 12 and 14): 10.46 days
